One series concerns the target hERG (Homo sapiens (Human), UniProt Q12809). Nature of the series: hERG assay (Test D), SyncroPatch 384PE patch clamp, hERG-expressing CHO cells. The class given is cell-based. The note with it: rt. In general terms: Block of hERG is tested as a sign of cardiac risk.
A short description of another series: Solubility (Test E). The class given is physicochemical.
Series [1] can be described thus: Solubility (Test F), McIlvaine buffer pH 6.5. The note with it: disodium hydrogenphosphate-citric acid (McIlvaine) buffer, 25 °C, pH 6.5, aqueous buffer, thermodynamic from solid, McIlvaine buffer pH 6.5, 25° C., 24 to 72 h; theoretical maximum 200 μM. It counts as physicochemical.
Series [2] addresses T1, Human NLRP3 (Homo sapiens (Human), UniProt Q96P20). The note with it: Test C IC50, IL-1β release, THP-1 cells, LPS 2 μg/mL 24 h, BzATP 1 mM.
The target in series [3] is T1, Human NLRP3.
The target of series [4] is T1, Human NLRP3. As to the kind of experiment: Human NLRP3 speck formation assay (Test A), nigericin triggered ASC-speck formation in ASC-GFP reporter monocytes.
For the next series, the system named is IL-1β production. Nature of the series: LPS/ATP test in mice, peritoneal IL-1β by ELISA. The class given is in vivo, BALB/cAJcl mice. The note with it: Mus musculus, LPS/ATP i.p.; for inhibition at 3 mg/kg: 3 mg/kg orally. In general terms: ELISA stands for enzyme-linked immunosorbent assay.

Usually IC50 stands for the concentration needed to halve the response being measured. The low end stands for inhibition by little substance, the high end for a need for much substance. A word on the solubility: it is the concentration that dissolves in the medium under given conditions. A higher solubility goes with much dissolved substance. Broadly, the EC50 is the concentration at which the effect is half-maximal. Broadly, the inhibition is the relative decrease from the control value, in per cent.

Values after ≈ are worked out from the molar mass of the structure shown. Like-named read-outs stand apart in the source and are kept apart here.

hERG, sequence (Q12809 whole entry): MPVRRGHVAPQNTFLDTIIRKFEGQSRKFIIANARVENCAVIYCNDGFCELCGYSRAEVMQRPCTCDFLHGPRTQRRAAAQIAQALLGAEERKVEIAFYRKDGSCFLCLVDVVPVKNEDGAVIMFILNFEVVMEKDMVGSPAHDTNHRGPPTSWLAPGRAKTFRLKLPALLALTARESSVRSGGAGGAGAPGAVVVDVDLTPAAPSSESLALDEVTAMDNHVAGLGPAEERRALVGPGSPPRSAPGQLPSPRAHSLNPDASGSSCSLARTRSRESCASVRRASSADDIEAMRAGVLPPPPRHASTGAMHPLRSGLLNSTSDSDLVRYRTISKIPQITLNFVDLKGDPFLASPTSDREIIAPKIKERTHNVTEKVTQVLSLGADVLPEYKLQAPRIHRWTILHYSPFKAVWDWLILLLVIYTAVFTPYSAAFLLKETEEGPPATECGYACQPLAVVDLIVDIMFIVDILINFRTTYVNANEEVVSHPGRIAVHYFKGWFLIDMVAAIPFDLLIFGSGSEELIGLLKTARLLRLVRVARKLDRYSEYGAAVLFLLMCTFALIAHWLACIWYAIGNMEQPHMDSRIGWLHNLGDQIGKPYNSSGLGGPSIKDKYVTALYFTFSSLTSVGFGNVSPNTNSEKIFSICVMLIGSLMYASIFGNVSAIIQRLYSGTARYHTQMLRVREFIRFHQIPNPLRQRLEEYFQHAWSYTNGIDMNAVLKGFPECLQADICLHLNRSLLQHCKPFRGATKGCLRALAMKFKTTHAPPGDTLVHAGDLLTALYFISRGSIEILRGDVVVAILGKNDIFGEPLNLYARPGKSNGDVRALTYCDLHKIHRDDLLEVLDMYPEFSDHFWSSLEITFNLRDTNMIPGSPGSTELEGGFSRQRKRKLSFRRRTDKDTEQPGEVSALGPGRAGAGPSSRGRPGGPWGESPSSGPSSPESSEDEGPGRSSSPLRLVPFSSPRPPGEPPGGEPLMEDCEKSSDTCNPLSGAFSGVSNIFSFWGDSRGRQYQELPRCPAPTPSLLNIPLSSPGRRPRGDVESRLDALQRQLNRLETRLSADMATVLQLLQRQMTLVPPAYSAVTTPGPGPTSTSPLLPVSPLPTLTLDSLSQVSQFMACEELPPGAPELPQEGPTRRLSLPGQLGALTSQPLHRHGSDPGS
T1 sequence (Q96P20 whole entry): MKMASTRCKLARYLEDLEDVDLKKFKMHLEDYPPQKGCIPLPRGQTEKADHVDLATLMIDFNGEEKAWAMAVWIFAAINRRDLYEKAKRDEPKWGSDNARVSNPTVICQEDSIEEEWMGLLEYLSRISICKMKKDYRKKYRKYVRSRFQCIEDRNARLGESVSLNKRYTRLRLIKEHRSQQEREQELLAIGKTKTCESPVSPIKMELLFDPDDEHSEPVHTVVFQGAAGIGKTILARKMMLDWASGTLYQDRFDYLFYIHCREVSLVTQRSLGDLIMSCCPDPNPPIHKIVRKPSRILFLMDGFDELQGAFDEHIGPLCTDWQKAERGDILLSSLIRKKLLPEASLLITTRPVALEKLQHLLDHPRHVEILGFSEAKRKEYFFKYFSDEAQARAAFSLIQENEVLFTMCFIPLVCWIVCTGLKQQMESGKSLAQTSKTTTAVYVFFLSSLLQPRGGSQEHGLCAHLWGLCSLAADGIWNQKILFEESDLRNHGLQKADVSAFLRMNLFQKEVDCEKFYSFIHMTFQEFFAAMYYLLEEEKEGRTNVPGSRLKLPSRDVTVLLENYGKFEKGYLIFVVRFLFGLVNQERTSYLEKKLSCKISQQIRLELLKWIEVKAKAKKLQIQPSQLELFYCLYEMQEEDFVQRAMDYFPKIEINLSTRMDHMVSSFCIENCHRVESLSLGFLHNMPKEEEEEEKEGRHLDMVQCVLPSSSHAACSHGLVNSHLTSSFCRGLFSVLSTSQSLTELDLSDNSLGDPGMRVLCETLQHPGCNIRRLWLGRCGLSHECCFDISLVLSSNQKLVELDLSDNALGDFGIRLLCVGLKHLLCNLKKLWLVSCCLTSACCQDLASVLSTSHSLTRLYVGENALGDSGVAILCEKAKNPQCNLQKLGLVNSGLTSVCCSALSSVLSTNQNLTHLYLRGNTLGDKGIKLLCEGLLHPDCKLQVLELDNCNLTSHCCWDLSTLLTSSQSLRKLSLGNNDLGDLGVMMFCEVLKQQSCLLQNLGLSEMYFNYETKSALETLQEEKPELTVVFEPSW

Regarding `Oc1cc(C(F)(F)F)ccc1-c1nnc(N[C@@H]2CCCC[C@H]2O)c2ccccc12` [Example 24, 2-[4-[[(1R,2R)-2-hydroxycyclohexyl]amino]phthalazin-1-yl]-5-(trifluoromethyl)phenol], the IC50 is 17000 nM on hERG, 5 nM on Human NLRP3 [2] and 9 nM against Human NLRP3 [3]. Further, the figures for the solubility (in “Solubility (Test E)”; in series [1]) were 148 µM (≈ 59.7 µg/mL) and 7.9 µg/mL (≈ 19.6 µM), respectively. For the same molecule, on Human NLRP3 [4], a half-maximal response (EC50) required 38 nM.

As for `Oc1cc(C(F)(F)F)ccc1-c1nnc(N[C@@H]2CCCC[C@@H]2O)c2ccccc12` [Example 23, 2-[4-[[(1R,2S)-2-hydroxycyclohexyl]amino]phthalazin-1-yl]-5-(trifluoromethyl)phenol], the IC50 at hERG amounted to 21000 nM; at Human NLRP3 [2] it was 14 nM; against Human NLRP3 [3], 31 nM. Also, the figures for the solubility (in “Solubility (Test E)”; in series [1]) were 0.4 µM (≈ 0.161 µg/mL) and 4.4 µg/mL (≈ 10.9 µM), respectively. The EC50 on Human NLRP3 [4] worked out at 156 nM.

On to `Oc1cc(Cl)ccc1-c1nnc(N[C@@H]2CCC[C@H](O)C2)c2cnccc12` [Example 44, 5-chloro-2-[4-[[(1R,3S)-3-hydroxycyclohexyl]amino]pyrido[3,4-d]pyridazin-1-yl]phenol], for which the IC50 at hERG is > 40000 nM; on Human NLRP3 [2] it was < 3 nM. Moreover, the solubility came to 636 µM (≈ 236 µg/mL) in “Solubility (Test E)” and 40.1 µg/mL (≈ 108 µM) in series [1]. Besides, the EC50 on Human NLRP3 [4] came to 16 nM.

For `Oc1cc(C(F)(F)F)ccc1-c1nnc(N[C@@H]2CCC[C@H](O)C2)c2cnccc12` [Example 41, 2-[4-[[(1R,3S)-3-hydroxycyclohexyl]amino]pyrido[3,4-d]pyridazin-1-yl]-5-(trifluoromethyl)phenol], the solubility in series [1] is 8.6 µg/mL (≈ 21.3 µM). This molecule showed an inhibition at 1 mg/kg in the series with IL-1β production (1 mg/kg orally) of 94%. Further, in the series with IL-1β production, 3 mg/kg produced 99% inhibition.

`Oc1cc(C(F)(F)F)ccc1-c1nnc(N[C@H]2CC[C@@H](O)C2)c2cnccc12` [Example 83, 2-[4-[[(1S,3R)-3-hydroxycyclopentyl]amino]pyrido[3,4-d]pyridazin-1-yl]-5-(trifluoromethyl)phenol]: the IC50 against hERG is > 40000 nM; at Human NLRP3 [2] it was 20 nM; against Human NLRP3 [3] it was 38 nM. For the same molecule, the solubility in the series “Solubility (Test E)” is 47 µM (≈ 18.3 µg/mL); in series [1], 4.7 µg/mL (≈ 12 µM). The molecule further had a half-maximal effective concentration (EC50) on Human NLRP3 [4] of 129 nM.

For `Oc1cc(C2CC2)ccc1-c1nnc(N[C@@H]2CCC[C@H](O)C2)c2cnccc12` [Example 52, 5-cyclopropyl-2-[4-[[(1R,3S)-3-hydroxycyclohexyl]amino]pyrido[3,4-d]pyridazin-1-yl]phenol], the IC50 on hERG came out at 22000 nM; at Human NLRP3 [2] it was 6 nM. Further, the solubility in “Solubility (Test E)” was determined as 447 µM (≈ 168 µg/mL); in series [1] it was 51.9 µg/mL (≈ 138 µM). The EC50 at Human NLRP3 [4] came to 52 nM.

In the case of `Oc1cc(Cl)ccc1-c1nnc(N[C@@H]2CCCC[C@H]2O)c2cnccc12` [Example 58, 5-chloro-2-[4-[[(1R,2R)-2-hydroxycyclohexyl]amino]pyrido[3,4-d]pyridazin-1-yl]phenol], the IC50 was > 40000 nM against hERG and 2 nM against Human NLRP3 [2]. In addition, the solubility in series [1] worked out at 42.4 µg/mL (≈ 114 µM). For the same molecule, on Human NLRP3 [4], the midpoint of the response, the EC50, lay at 11 nM.

For the molecule `C[C@]1(O)C[C@@H](Nc2nnc(-c3ccc(C(F)(F)F)cc3O)c3ccccc23)C1` [Example 37, 2-(4-(((1s,3s)-3-hydroxy-3-methylcyclobutyl)amino)phthalazin-1-yl)-5-(trifluoromethyl)phenol], the figures for the IC50 at hERG and against Human NLRP3 [3] were 29000 nM and 32 nM, respectively. At Human NLRP3 [4], this molecule registered an EC50 of 339 nM.

As to `Oc1cc(OC(F)(F)F)ccc1-c1nnc(N[C@@H]2CCC[C@H](O)C2)c2cnccc12` [Example 48, 2-[4-[[(1R,3S)-3-hydroxycyclohexyl]amino]pyrido[3,4-d]pyridazin-1-yl]-5-(trifluoromethoxy)phenol], the IC50 against hERG was > 40000 nM; at Human NLRP3 [2], 4 nM; at Human NLRP3 [3], 14 nM. Moreover, the solubility in “Solubility (Test E)” is 326 µM (≈ 137 µg/mL); in series [1], 80.4 µg/mL (≈ 191 µM). At Human NLRP3 [4], this molecule yielded an EC50 of 29 nM.

In the case of `Oc1cc(C(F)(F)F)ccc1-c1nnc(N[C@H]2CCC[C@H]2O)c2ccccc12` [Example 21, 2-[4-[[(1S,2R)-2-hydroxycyclopentyl]amino]phthalazin-1-yl]-5-(trifluoromethyl)phenol], the IC50 against hERG amounted to 19000 nM; against Human NLRP3 [2], 8 nM; at Human NLRP3 [3], 36 nM. The solubility in “Solubility (Test E)” was found to be 71 µM (≈ 27.6 µg/mL); in series [1] it was 14.5 µg/mL (≈ 37.2 µM). On Human NLRP3 [4], this molecule gave an EC50 of 105 nM.

With `Oc1cc(F)ccc1-c1nnc(N[C@@H]2CCCC[C@H]2O)c2cnccc12` [Example 75, 5-fluoro-2-(4-(((1R,2R)-2-hydroxycyclohexyl)amino)pyrido[3,4-d]pyridazin-1-yl)phenol], the IC50 was > 40000 nM against hERG and 10 nM on Human NLRP3 [3]. At Human NLRP3 [4], this molecule gave an EC50 of 124 nM.

With `Oc1cc(C(F)(F)F)c(F)cc1-c1nnc(N[C@@H]2CCC[C@H](O)C2)c2cnccc12` [Example 53, 4-fluoro-2-[4-[[(1R,3S)-3-hydroxycyclohexyl]amino]pyrido[3,4-d]pyridazin-1-yl]-5-(trifluoromethyl)phenol], the solubility in series [1] turned out to be 62.5 µg/mL (≈ 148 µM). Besides, in the series with IL-1β production, the inhibition at 3 mg/kg was 65%. On Human NLRP3 [2], this molecule registered an IC50 of 7 nM.

Regarding `Oc1cc(C(F)(F)F)ccc1-c1nnc(N[C@@H]2CCC[C@@H]2O)c2ccccc12` [Example 19, 2-[4-[[(1R,2S)-2-hydroxycyclopentyl]amino]phthalazin-1-yl]-5-(trifluoromethyl)phenol], the concentration for half-maximal inhibition (IC50) is 23000 nM against hERG, 5 nM at Human NLRP3 [2] and 20 nM against Human NLRP3 [3]. Besides, the values for the solubility (in “Solubility (Test E)”; in series [1]) were 171 µM (≈ 66.6 µg/mL) and 10.6 µg/mL (≈ 27.2 µM), respectively. Moreover, the EC50 on Human NLRP3 [4] stood at 26 nM.

As for `Oc1cc(C(F)(F)F)ccc1-c1nnc(N[C@H]2CCCC[C@H]2O)c2ccccc12` [Example 25, 2-[4-[[(1S,2R)-2-hydroxycyclohexyl]amino]phthalazin-1-yl]-5-(trifluoromethyl)phenol], the results for the IC50 on hERG, against Human NLRP3 [2] and against Human NLRP3 [3] were 7400 nM, 8 nM and 36 nM, respectively. Moreover, the solubility in the series “Solubility (Test E)” worked out at 3 µM (≈ 1.21 µg/mL); in series [1], 1.8 µg/mL (≈ 4.46 µM). Besides, a half-maximal response at Human NLRP3 [4] (EC50) required 80 nM.

On to `Oc1cc(C(F)(F)F)c(F)cc1-c1nnc(N[C@@H]2CCCC[C@H]2O)c2cnccc12` [Example 54, 4-fluoro-2-[4-[[(1R,2R)-2-hydroxycyclohexyl]amino]pyrido[3,4-d]pyridazin-1-yl]-5-(trifluoromethyl)phenol], for which the solubility in series [1] stood at 45.7 µg/mL (≈ 108 µM). This molecule also returned an inhibition at 3 mg/kg in the series with IL-1β production of 55%. At Human NLRP3 [2], this molecule displayed an IC50 of 4 nM.

With `Oc1cc(C(F)(F)F)ccc1-c1nnc(N[C@@H]2CC[C@@H](O)C2)c2ccccc12` [Example 16, 2-[4-[[(1R,3R)-3-hydroxycyclopentyl]amino]phthalazin-1-yl]-5-(trifluoromethyl)phenol], the IC50 at hERG amounted to 22000 nM; against Human NLRP3 [2], 20 nM; against Human NLRP3 [3], 30 nM. The molecule further showed a solubility in series [1] of 23.9 µg/mL (≈ 61.4 µM). This molecule gave an EC50 at Human NLRP3 [4] of 54 nM.

With `CC(C)(O)CNc1nnc(-c2c(O)cc(Cl)cc2F)c2ccncc12` [Example 73, 5-chloro-3-fluoro-2-[4-[(2-hydroxy-2-methyl-propyl)amino]pyrido[3,4-d]pyridazin-1-yl]phenol], the IC50 on hERG was > 40000 nM; on Human NLRP3 [2], 15 nM. The molecule also returned a solubility in series [1] of 14.1 µg/mL (≈ 38.9 µM). On Human NLRP3 [4], this molecule came in with an EC50 of 142 nM.

(Values after patent publication US11970463B2, “Compounds and their use” (ASTRAZENECA AB, priority 2021, dated 2024).)
